Experiments:
[1] = tested on: in vitro blood-brain barrier model (membranous cell sheet formed by endothelial cells); test: test of a blood-brain barrier toxic drug on the in vitro blood-brain barrier model; conditions: FIG. 20
Procedure: A test of a blood-brain barrier toxic drug is carried out to determine the response of the blood-brain barrier model constructed in the embodiment to the blood-brain barrier toxic drug.

[2] = tested on: in vitro blood-brain barrier model (membranous cell sheet formed by endothelial cells)

Row | SMILES | barrier function of the blood-brain barrier model ([1]; after self-recovery for 24 hours following drug treatment) | barrier function of the blood-brain barrier model ([1]; after treatment with the blood-brain barrier toxic drug) | content detected in the lower chamber [2]
1 | CN[C@@H](C)Cc1ccccc1 [methamphetamine] | significantly improved | significantly reduced | 
2 | N[C@@H](Cc1ccc(O)c(O)c1)C(=O)O [L-dopamine] |  |  | significantly higher than that of the dopamine
3 | NCCc1ccc(O)c(O)c1 [dopamine] |  |  | the content of the L-dopamine detected in the lower chamber is significantly higher than that of the dopamine
